Experimental data published in patent US8415342B2, “Besifloxacin ophthalmic composition for the treatment or control of infection” (Bausch & Lomb Incorporated, priority 2008, dated 2013).
In brackets after ≈: the same amount, converted by molar mass. Where two headings read alike, the source gives them in different places.

What was measured:
Assay type in all cases: cell-based
[1] = system: S. epidermidis; assay: MIC and MBC:MIC ratio, recent ocular isolates; details: S. epidermidis (N = 15)
Text: The success of in vivo antimicrobial action depends to a large extent on the host's defense mechanisms, which ultimately sequester and kill the microorganisms that have been reduced by the bacteriostatic/bactericidal action of the antibacterial agent. Thus, it is also of interest to profile the bactericidal activity of antimicrobial agents. The assessment of in vitro bactericidal activity can be accomplished in multiple ways, for example, the time-kill method or the determination of the minimum bactericidal concentration (MBC). […] Bactericidal agents are characterized by low MBC:MIC ratios.

[2] = system: Staphylococcus aureus; assay: MIC, CLSI broth microdilution, clinical isolates; details: for MIC50 / MIC90: Staphylococcus aureus
[3] = system: Staphylococcus epidermidis; assay: MIC, CLSI broth microdilution, clinical isolates; details: for MIC50: Staphylococcus epidermidis
[4] = system: Staphylococcus lugdunensis; assay: MIC, CLSI broth microdilution, clinical isolates; details: Staphylococcus lugdunensis (N = 15)
[5] = system: Staphylococcus saprophyticus; assay: MIC, CLSI broth microdilution, clinical isolates; details: Staphylococcus saprophyticus (N = 101)
[6] = system: Staphylococcus haemolyticus; assay: MIC, CLSI broth microdilution, clinical isolates; details: Staphylococcus haemolyticus (N = 101)
[7] = system: Staphylococcus warneri; assay: MIC, CLSI broth microdilution, clinical isolates; details: Staphylococcus warneri (N = 50)
[8] = system: Staphylococcus hominis; assay: MIC, CLSI broth microdilution, clinical isolates; details: Staphylococcus hominis (N = 50)
[9] = system: Streptococcus agalactiae; assay: MIC, CLSI broth microdilution, clinical isolates; details: Streptococcus agalactiae (N = 100)
[10] = system: Streptococcus pneumoniae; assay: MIC, CLSI broth microdilution, clinical isolates
[11] = system: Streptococcus pyogenes; assay: MIC, CLSI broth microdilution, clinical isolates; details: Streptococcus pyogenes (N = 101)
[12] = system: Lancefield group C, F, G streptococci; assay: MIC, CLSI broth microdilution, clinical isolates; details: G streptococci (N = 50)
[13] = system: Viridans streptococci; assay: MIC, CLSI broth microdilution, clinical isolates; details: Viridans streptococci (N = 156)
[14] = system: Citrobacter koseri; assay: MIC, CLSI broth microdilution, clinical isolates; details: Citrobacter koseri (N = 100)
[15] = system: Klebsiella oxytoca; assay: MIC, CLSI broth microdilution, clinical isolates; details: Klebsiella oxytoca (N = 50)
[16] = system: Haemophilus influenzae; assay: MIC, CLSI broth microdilution, clinical isolates; details: for MIC50 / MIC90: Haemophilus influenzae
[17] = system: Legionella pneumophila; assay: microbe, parasite or virus in culture
[18] = system: Moraxella catarrhalis; assay: MIC, CLSI broth microdilution, clinical isolates; details: Moraxella catarrhalis (N = 101)
[19] = system: Morganella morganii; assay: MIC, CLSI broth microdilution, clinical isolates; details: Morganella morganii (N = 51)
[20] = system: S. aureus; assay: MIC of clinical trial isolates, Studies 373, 433, 434; details: Staphylococcus aureus
[21] = system: S. epidermidis; assay: as above; details: Staphylococcus epidermidis
[22] = Staphylococcus epidermidis, recent ocular isolates
[23] = Staphylococcus aureus (CNS, N = 16)
[24] = Staphylococcus aureus (CS, N = 14)
[25] = Staphylococcus aureus (all phenotypes, N = 30)
[26] = MRSA, Staphylococcus aureus (MRSA, N = 11)
[27] = MSSA, Staphylococcus aureus (MSSA, N = 19)
[28] = Staphylococcus epidermidis (CNS, N = 6)
[29] = Staphylococcus epidermidis (CS, N = 9)
[30] = Staphylococcus epidermidis (MSSE, N = 6)
[31] = Staphylococcus epidermidis (all phenotypes, N = 15)
[32] = Streptococcus pneumoniae (PSSP, N = 31)
[33] = Haemophilus influenzae (all phenotypes, N = 40)
[34] = Haemophilus influenzae (bla negative, N = 24)
[35] = Haemophilus influenzae (bla positive, N = 16)

N[C@@H]1CCCCN(c2c(F)cc3c(=O)c(C(=O)O)cn(C4CC4)c3c2Cl)C1 [Besifloxacin, (R)-(+)-(3-amino-2,3,4,5,6,7-hexahydro-1H-azepin-1-yl)-8-chloro-1-cyclopropyl-6-fluoro-1,4,-dihydro-4-oxo-3-quinolinecarboxylic acid]
% of isolates with MBC:MIC ratio 1 [1]: 73.3% | % of isolates with MBC:MIC ratio 2 [1]: 20.0% | % of isolates with MBC:MIC ratio 4 [1]: 6.7% | % of isolates with MBC:MIC ratio 8 [1]: 0.0% | % of isolates with MBC:MIC ratio ≧16 [1]: 0.0% | MIC Range ([1]; recent ocular isolates): 0.015 to 4 µg/mL | MIC50 [1, 22]: 0.03 µg/mL | MIC90 [1, 22]: 4 µg/mL | MIC Range [2, 23]: 0.03 to 4 µg/mL | MIC Range [2, 24]: 0.015 to 0.25 µg/mL | MIC Range ([2]; Staphylococcus aureus (MRSA, N = 11)): 0.015 to 4 µg/mL | MIC Range ([2]; Staphylococcus aureus (MSSA, N = 19)): 0.015 to 4 µg/mL | MIC Range [2, 25]: 0.015 to 4 µg/mL | MIC50 [2, 26]: 0.5 µg/mL (≈ 1.27 µM) | MIC90 [2, 26]: 4 µg/mL (≈ 10.2 µM) | MIC50 [2, 27]: 0.015 µg/mL (≈ 0.0381 µM) | MIC90 [2, 27]: 0.25 µg/mL (≈ 0.635 µM) | MIC50 [2, 23]: 0.25 µg/mL (≈ 0.635 µM) | MIC90 [2, 23]: 4 µg/mL (≈ 10.2 µM) | MIC50 [2, 24]: 0.015 µg/mL (≈ 0.0381 µM) | MIC90 [2, 24]: 0.12 µg/mL (≈ 0.305 µM) | MIC50 [2, 25]: 0.12 µg/mL (≈ 0.305 µM) | MIC90 [2, 25]: 4 µg/mL (≈ 10.2 µM) | MIC Range [3, 28]: 0.25 to 4 µg/mL | MIC Range [3, 29]: 0.015 to 0.03 µg/mL | MIC Range ([3]; Staphylococcus epidermidis (MRSE, N = 9)): 0.015 to 4 µg/mL | MIC Range [3, 30]: 0.015 to 0.25 µg/mL | MIC90 [3, 31]: 4 µg/mL (≈ 10.2 µM) | MIC Range [3, 31]: 0.015 to 4 µg/mL | MIC50 ([3]; MRSE, Staphylococcus epidermidis (MRSE, N = 9)): 0.25 µg/mL (≈ 0.635 µM) | MIC50 [3, 28]: 0.25 µg/mL (≈ 0.635 µM) | MIC50 [3, 29]: 0.03 µg/mL (≈ 0.0762 µM) | MIC50 [3, 30]: 0.03 µg/mL (≈ 0.0762 µM) | MIC50 [3, 31]: 0.03 µg/mL (≈ 0.0762 µM) | MIC50 [4]: 0.06 µg/mL (≈ 0.152 µM) | MIC90 [4]: 0.5 µg/mL (≈ 1.27 µM) | MIC Range [4]: 0.015 to 2 µg/mL | MIC50 [5]: 0.06 µg/mL (≈ 0.152 µM) | MIC90 [5]: 0.12 µg/mL (≈ 0.305 µM) | MIC Range [5]: 0.015 to 0.25 µg/mL | MIC50 [6]: 0.5 µg/mL (≈ 1.27 µM) | MIC90 [6]: 1 µg/mL (≈ 2.54 µM) | MIC Range [6]: 0.015 to 4 µg/mL | MIC50 [7]: 0.06 µg/mL (≈ 0.152 µM) | MIC90 [7]: 1 µg/mL (≈ 2.54 µM) | MIC Range [7]: 0.015 to 2 µg/mL | MIC50 [8]: 0.25 µg/mL (≈ 0.635 µM) | MIC90 [8]: 1 µg/mL (≈ 2.54 µM) | MIC Range [8]: 0.015 to 2 µg/mL | MIC Range [9]: 0.03 to 0.12 µg/mL | MIC50 ([9]; read-out: MIC50): 0.06 µg/mL (≈ 0.152 µM) | MIC90 ([9]; read-out: MIC90): 0.06 µg/mL (≈ 0.152 µM) | MIC Range ([10]; Streptococcus pneumoniae (PISP, N = 2)): 0.06 to 0.12 µg/mL | MIC Range ([10]; Streptococcus pneumoniae (PRSP, N = 2)): 0.03 to 0.06 µg/mL | MIC50 [10, 32]: 0.06 µg/mL (≈ 0.152 µM) | MIC90 [10, 32]: 0.06 µg/mL (≈ 0.152 µM) | MIC Range [10, 32]: 0.015 to 0.5 µg/mL | MIC Range ([10]; Streptococcus pneumoniae (all phenotypes, N = 35)): 0.015 to 0.5 µg/mL | MIC50 ([10]; Streptococcus pneumoniae (all phenotypes, N = 35), read-out: MIC50): 0.06 µg/mL (≈ 0.152 µM) | MIC90 ([10]; Streptococcus pneumoniae (all phenotypes, N = 35), read-out: MIC90): 0.06 µg/mL (≈ 0.152 µM) | MIC Range [11]: 0.03 to 0.06 µg/mL | MIC50 ([11]; read-out: MIC50): 0.03 µg/mL (≈ 0.0762 µM) | MIC90 ([11]; read-out: MIC90): 0.06 µg/mL (≈ 0.152 µM) | MIC Range [12]: 0.015 to 0.25 µg/mL | MIC50 ([12]; read-out: MIC50): 0.03 µg/mL (≈ 0.0762 µM) | MIC90 ([12]; read-out: MIC90): 0.06 µg/mL (≈ 0.152 µM) | MIC Range [13]: 0.015 to 2 µg/mL | MIC50 ([13]; read-out: MIC50): 0.06 µg/mL (≈ 0.152 µM) | MIC90 ([13]; read-out: MIC90): 0.12 µg/mL (≈ 0.305 µM) | MIC50 [14]: 0.06 µg/mL (≈ 0.152 µM) | MIC90 [14]: 0.25 µg/mL (≈ 0.635 µM) | MIC50 [15]: 0.12 µg/mL (≈ 0.305 µM) | MIC90 [15]: 1 µg/mL (≈ 2.54 µM) | MIC Range [15]: 0.06 to 8 µg/mL | MIC Range [16, 33]: ≦0.004-0.03 μg/mL | MIC Range [16, 34]: ≦0.004-0.03 μg/mL | MIC Range [16, 35]: 0.008 to 0.03 µg/mL | MIC50 [16, 33]: 0.015 µg/mL (≈ 0.0381 µM) | MIC90 [16, 33]: 0.015 µg/mL (≈ 0.0381 µM) | MIC50 [16, 34]: 0.015 µg/mL (≈ 0.0381 µM) | MIC90 [16, 34]: 0.015 µg/mL (≈ 0.0381 µM) | MIC50 [16, 35]: 0.015 µg/mL (≈ 0.0381 µM) | MIC90 [16, 35]: 0.03 µg/mL (≈ 0.0762 µM) | MIC50 ([17]; Legionella pneumophila): 0.03 µg/mL (≈ 0.0762 µM) | MIC90 ([17]; Legionella pneumophila): 0.03 µg/mL (≈ 0.0762 µM) | MIC Range ([17]; Legionella pneumophila (N = 50)): 0.015 to 0.06 µg/mL | MIC50 [18]: 0.03 µg/mL (≈ 0.0762 µM) | MIC90 [18]: 0.03 µg/mL (≈ 0.0762 µM) | MIC Range [18]: 0.015 to 0.12 µg/mL | MIC50 [19]: 0.12 µg/mL (≈ 0.305 µM) | MIC90 [19]: 4 µg/mL (≈ 10.2 µM) | MIC90 ([20]; MRSA, S. aureus MRSA-CR, N 17, read-out: MIC90): 4 µg/mL | MIC90 ([20]; MRSA, S. aureus MRSA-CS, N 9, read-out: MIC90 (due to limited isolates, highest MIC value is given)): 0.06 µg/mL | MIC90 ([20]; MRSA, Staphylococcus aureus (MRSA-CR), isolates of studies 373, 433, 434, read-out: MIC90): 4 µg/mL | MIC90 ([20]; MSSA, S. aureus MSSA-CR, N 17, read-out: MIC90): 2 µg/mL | MIC90 ([20]; MSSA, S. aureus MSSA-CS, N 144, read-out: MIC90): 0.06 µg/mL | MIC90 ([20]; MSSA, Staphylococcus aureus (MSSA-CR), isolates of studies 373, 433, 434, read-out: MIC90): 2 µg/mL | MIC90 ([20]; Staphylococcus aureus (all phenotypes), isolates of studies 373, 433, 434, read-out: MIC90): 0.5 µg/mL | MIC90 ([21]; MRSE, S. epidermidis MRSE-CR, N 24, read-out: MIC90): 4 µg/mL | MIC90 ([21]; MRSE, S. epidermidis MRSE-CS, N 27, read-out: MIC90): 0.06 µg/mL | MIC90 ([21]; S. epidermidis MSSE-CR, N 10, read-out: MIC90): 1 µg/mL | MIC90 ([21]; S. epidermidis MSSE-CS, N 50, read-out: MIC90): 0.06 µg/mL | MIC90 ([21]; isolates of studies 373, 433, 434, read-out: MIC90): 0.5 µg/mL
